Key:
CHO-AA8 = assay: Cytotoxicity in a growth inhibition assay against aerobic cultures of AA8 cells was determined; format: functional, cell-based, Cricetulus griseus
UV4 = assay: Cytotoxicity in a growth inhibition assay against aerobic cultures of UV4 cells was determined; format: functional, cell-based; settings: Cricetulus griseus

Compound	IC50 (CHO-AA8; Cricetulus griseus, CHO-AA8)	IC50 (UV4)	IC50 (CHO-AA8; cho-aa8)
NC(=O)c1cc2c(cc1[N+](=O)[O-])NCCN2CCCl	730 µM	49 µM	
NC(=O)c1cc2c(cc1N)NCCN2CCCl	6.9 µM	0.87 µM	
NC(=O)c1cc(N(CCCl)CCCl)c([N+](=O)[O-])cc1[N+](=O)[O-]		960 µM	1600 µM
NC(=O)c1cc(N(CCO)CCO)c(N)cc1N	2300 µM	3000 µM	

From ChEMBL document CHEMBL1128289, “Reductive chemistry of the novel hypoxia-selective cytotoxin 5-[N,N-bis(2-chloroethyl)amino]-2,4-dinitrobenzamide” (J Med Chem, 1995)
